The subject of the test is MV4-11 cells. Description: Cell proliferation assay MV4;11 (CellTiter-Glo, 72 hours). It is filed as cell-based. The conditions noted are these: Homo sapiens; MV4;11 leukemia cell line, 72 hours; read-out: MV4; 11 IC50. The protocol:
Compounds were evaluated for its capacity to inhibit the proliferation of the MLLr leukemia cell line MV4-11 that harbors an MLL1-AF4 fusion protein. MV4-11 cells were cultured for 72 hours with limiting dilutions of compounds and viability was measured using CellTiter-Glo.
Compounds were dissolved to obtain as 10 mM solution in DMSO. The stock was diluted 1:5 to the top concentration of 2 mM in 100% DMSO. For IC50 determination, serial 1:3.16 dilutions were prepared in 100% DMSO by diluting 20 μL into 43.5 μL of DMSO for 8 concentrations. Each prepared DMSO solution were further diluted 1:500 in the cell culture media to obtain the 2× dosing solutions. The final concentrations of tested compounds in the cell culture media ranged from 0.632 nM to 2000 nM.
MV4-11 cells were cultured in IMDM with 10% FBS and 1× Penicillin-Streptomycin at 5% CO2 and 37° C. A cell suspension was prepared containing 15,000 cells/ml in the culture medium and 100 μL of this suspension was added per well to a 96-well cell culture plate. Then, 100 μL of 2× dosing media containing test compounds were added bringing the total volume to 200 μL. These cells were cultured for 72 hours at 37° C. and 5% CO2 in a humidified incubator.
After 72 hours, the cultured cells were mixed and 100p L was transferred to a 96-well black plate. Cell Titer Glo (100 μl) was then added to this plate. The plate was mixed with shaking for 15 mins at RT, the luminescence was then measured using Tecan Spark 20M spectrophotometer. Cell Viability (%) was determined by RLU of test/RLU average vehicle control*100 and % max inhibition was determined by 100−(% cell viability remaining at the top concentration of compound).
(Cellular ATP, detected with luciferase, serves as a proxy for viable cell number.)

A value given as a limit tells only on which side of the number the result lay.

Take `CCS(=O)(=O)N[C@@H]1CC[C@@H](CN2CCC3(CC2)CN(c2ncncc2Oc2ccc(F)cc2C(=O)N(C(C)C)C2CC(F)(F)C2)C3)OC1` [Example 44, N-(3,3-Difluorocyclobutyl)-2-((4-(7-(((2S,5R)-5-(ethylsulfonamido)tetrahydro-2H-pyran-2-yl)methyl)-2,7-diazaspiro[3.5]nonan-2-yl)pyrimidin-5-yl)oxy)-5-fluoro-N-isopropylbenzamide]: the IC50 is below 100 nM.

For the compound `C[C@@H]1COC[C@@H](C)N1C(=O)c1cc(F)ccc1Oc1cncnc1N1CC2(CCN(C[C@@H]3CC[C@@H](NS(=O)(=O)c4ccn(C)n4)CO3)CC2)C1` [Example 127, N-((3R,6S)-6-((2-(5-(2-((3R,5R)-3,5-Dimethylmorpholine-4-carbonyl)-4-fluorophenoxy)pyrimidin-4-yl)-2,7-diazaspiro[3.5]nonan-7-yl)methyl)tetrahydro-2H-pyran-3-yl)-1-methyl-1H-pyrazole-3-sulfonamide], the IC50 was below 100 nM.

For the compound `CC(C)N(CC#N)C(=O)c1cc(F)ccc1Oc1cncnc1N1CC2(CCN(C[C@@H]3CC[C@@H](NS(=O)(=O)N(C)C)CO3)CC2)C1` [Example 181, N-(Cyanomethyl)-2-((4-(7-(((2S,5R)-5-((N,N-dimethylsulfamoyl)amino)tetrahydro-2H-pyran-2-yl)methyl)-2,7-diazaspiro[3.5]nonan-2-yl)pyrimidin-5-yl)oxy)-5-fluoro-N-isopropylbenzamide], the IC50 was below 100 nM.

Take `CC(C)N(C(=O)c1cc(F)ccc1Oc1cncnc1N1CC2(CCN(C[C@@H]3CC[C@@H](NS(C)(=O)=O)CO3)CC2)C1)[C@@H]1CCOC1` [Example 166, 5-Fluoro-N-isopropyl-2-((4-(7-(((2S,5R)-5-(methylsulfonamido)tetrahydro-2H-pyran-2-yl)methyl)-2,7-diazaspiro[3.5]nonan-2-yl)pyrimidin-5-yl)oxy)-N-((R)-tetrahydrofuran-3-yl)benzamide]: the IC50 was below 100 nM.

`CC(C)N(C(=O)c1cc(F)ccc1Oc1cncnc1N1CC2(CCN(C[C@@H]3CC[C@@H](NS(=O)(=O)C(C)C)CO3)CC2)C1)[C@H]1CCOC1` [Example 174, 5-Fluoro-N-isopropyl-2-((4-(7-(((2S,5R)-5-((1-methylethyl)sulfonamido)tetrahydro-2H-pyran-2-yl)methyl)-2,7-diazaspiro[3.5]nonan-2-yl)pyrimidin-5-yl)oxy)-N-((S)-tetrahydrofuran-3-yl)benzamide]: the IC50 is below 100 nM.

Turning to `CC(C)S(=O)(=O)N[C@@H]1CC[C@@H](CN2CCC3(CC2)CN(c2ncncc2Oc2ccc(F)cc2C(=O)N2[C@H](C)COC[C@H]2C)C3)OC1` [Example 30, N-((3R,6S)-6-((2-(5-(2-((3R,5R)-3,5-Dimethylmorpholine-4-carbonyl)-4-fluorophenoxy)pyrimidin-4-yl)-2,7-diazaspiro[3.5]nonan-7-yl)methyl)tetrahydro-2H-pyran-3-yl)propane-2-sulfonamide], the IC50 is below 100 nM.

For `CC(C)N(C(=O)c1cc(F)ccc1Oc1cncnc1N1CC2(CCN(C[C@@H]3CC[C@@H](NS(=O)(=O)C4CC4)CO3)CC2)C1)[C@@H]1CCOC1` [Example 164, 2-((4-(7-(((2S,5R)-5-(Cyclopropanesulfonamido)tetrahydro-2H-pyran-2-yl)methyl)-2,7-diazaspiro[3.5]nonan-2-yl)pyrimidin-5-yl)oxy)-5-fluoro-N-isopropyl-N-((R)-tetrahydrofuran-3-yl)benzamide], the IC50 was below 100 nM.

On to `C=CS(=O)(=O)N[C@@H]1CC[C@@H](CN2CCC3(CC2)CN(c2ncncc2Oc2ccc(F)cc2C(=O)N(CC)C(C)C)C3)OC1` [Example 219, N-Ethyl-5-fluoro-N-isopropyl-2-((4-(7-(((2S,5R)-5-(vinylsulfonamido)tetrahydro-2H-pyran-2-yl)methyl)-2,7-diazaspiro[3.5]nonan-2-yl)pyrimidin-5-yl)oxy)benzamide], for which the IC50 is below 100 nM.

With `CCNS(=O)(=O)N[C@@H]1CC[C@@H](CN2CCC3(CC2)CN(c2ncncc2Oc2ccc(F)cc2C(=O)N(C(C)C)C(C)C)C3)OC1` [Example 144, 2-((4-(7-(((2S,5R)-5-((N-Ethylsulfamoyl)amino)tetrahydro-2H-pyran-2-yl)methyl)-2,7-diazaspiro[3.5]nonan-2-yl)pyrimidin-5-yl)oxy)-5-fluoro-N,N-diisopropylbenzamide], the IC50 was below 100 nM.

As to `CC(C)N(C(=O)c1cc(F)ccc1Oc1cncnc1N1CC2(CCN(C[C@@H]3CC[C@@H](NS(=O)(=O)N(C)C(C)C)CO3)CC2)C1)C(C)C` [Example 89, 5-Fluoro-N,N-diisopropyl-2-((4-(7-(((2S,5R)-5-((N-isopropyl-N-methylsulfamoyl)amino)tetrahydro-2H-pyran-2-yl)methyl)-2,7-diazaspiro[3.5]nonan-2-yl)pyrimidin-5-yl)oxy)benzamide], the IC50 was below 100 nM.

For `CCS(=O)(=O)N[C@@H]1CC[C@@H](CN2CCC3(CC2)CN(c2ncnnc2Oc2ccc(F)cc2C(=O)N(CC(F)(F)F)C(C)C)C3)OC1` [Example 190, 2-((5-(7-(((2S,5R)-5-(Ethylsulfonamido)tetrahydro-2H-pyran-2-yl)methyl)-2,7-diazaspiro[3.5]nonan-2-yl)-1,2,4-triazin-6-yl)oxy)-5-fluoro-N-isopropyl-N-(2,2,2-trifluoroethyl)benzamide], the IC50 is below 100 nM.

`CC(C)N(CCC#N)C(=O)c1cc(F)ccc1Oc1cncnc1N1CC2(CCN(C[C@@H]3CC[C@@H](NS(=O)(=O)N(C)C)CO3)CC2)C1` [Example 183, N-(2-Cyanoethyl)-2-((4-(7-(((2S,5R)-5-((N,N-dimethylsulfamoyl)amino)tetrahydro-2H-pyran-2-yl)methyl)-2,7-diazaspiro[3.5]nonan-2-yl)pyrimidin-5-yl)oxy)-5-fluoro-N-isopropylbenzamide]: the IC50 is below 100 nM.

In the case of `CCN(C(=O)c1cc(F)ccc1Oc1cncnc1N1CC2(CCN(C[C@@H]3CC[C@@H](NS(=O)(=O)c4cccc(C)c4)CO3)CC2)C1)C(C)C` [Example 60, N-ethyl-5-fluoro-N-isopropyl-2-((4-(7-(((2S,5R)-5-((3-methylphenyl)sulfonamido)tetrahydro-2H-pyran-2-yl)methyl)-2,7-diazaspiro[3.5]nonan-2-yl)pyrimidin-5-yl)oxy)benzamide], the IC50 was below 100 nM.

On to `CC(C)N(C(=O)c1cc(F)ccc1Oc1cncnc1N1CC2(CCN(C[C@@H]3CC[C@@H](NS(=O)(=O)N(C)C)CO3)CC2)C1)C(C)C` [Example 77, 2-((4-(7-(((2S,5R)-5-((N,N-Dimethylsulfamoyl)amino)tetrahydro-2H-pyran-2-yl)methyl)-2,7-diazaspiro[3.5]nonan-2-yl)pyrimidin-5-yl)oxy)-5-fluoro-N,N-diisopropylbenzamide], for which the IC50 is below 100 nM.

Regarding `CC(C)N(C(=O)c1cc(F)ccc1Oc1cncnc1N1CC2(CCN(C[C@@H]3CC[C@@H](NS(=O)(=O)N4CCCC4)CO3)CC2)C1)[C@@H]1CCOC1` [Example 169, 5-Fluoro-N-isopropyl-2-((4-(7-(((2S,5R)-5-(pyrrolidine-1-sulfonamido)tetrahydro-2H-pyran-2-yl)methyl)-2,7-diazaspiro[3.5]nonan-2-yl)pyrimidin-5-yl)oxy)-N-((R)-tetrahydrofuran-3-yl)benzamide], the IC50 was below 100 nM.

Regarding `CCN(C(=O)c1cc(F)ccc1Oc1cncnc1N1CC2(CCN(C[C@@H]3CC[C@@H](NC(=O)NCC4CC4)CO3)CC2)C1)C(C)C` [Example 42, 2-((4-(7-(((2S,5R)-5-(3-(Cyclopropylmethyl)ureido)tetrahydro-2H-pyran-2-yl)methyl)-2,7-diazaspiro[3.5]nonan-2-yl)pyrimidin-5-yl)oxy)-N-ethyl-5-fluoro-N-isopropylbenzamide], the IC50 fell in the range of 100 to 1000 nM.

Turning to `CC(C)N(C(=O)c1cc(F)ccc1Oc1cncnc1N1CC2(CCN(C[C@@H]3CC[C@@H](NS(=O)(=O)C(C)C)CO3)CC2)C1)[C@@H]1CCOC1` [Example 132, 5-Fluoro-N-isopropyl-2-((4-(7-(((2S,5R)-5-((1-methylethyl)sulfonamido)tetrahydro-2H-pyran-2-yl)methyl)-2,7-diazaspiro[3.5]nonan-2-yl)pyrimidin-5-yl)oxy)-N-((R)-tetrahydrofuran-3-yl)benzamide], the IC50 was below 100 nM.

On to `CC(C)S(=O)(=O)N[C@@H]1CC[C@@H](CN2CCC3(CC2)CN(c2ncncc2Oc2ccc(F)cc2C(=O)N2[C@H](C)COC[C@@H]2C)C3)OC1` [Example 25, N-((3R,6S)-6-((2-(5-(2-((3S,5R)-3,5-Dimethylmorpholine-4-carbonyl)-4-fluorophenoxy)pyrimidin-4-yl)-2,7-diazaspiro[3.5]nonan-7-yl)methyl)tetrahydro-2H-pyran-3-yl)propane-2-sulfonamide], for which the IC50 is below 100 nM.

In the case of `C[C@@H]1COC[C@H](C)N1C(=O)c1cc(F)ccc1Oc1cncnc1N1CC2(CCN(C[C@@H]3CC[C@@H](NS(=O)(=O)c4ccccc4)CO3)CC2)C1` [Example 130, N-((3R,6S)-6-((2-(5-(2-((3S,5R)-3,5-Dimethylmorpholine-4-carbonyl)-4-fluorophenoxy)pyrimidin-4-yl)-2,7-diazaspiro[3.5]nonan-7-yl)methyl)tetrahydro-2H-pyran-3-yl)benzenesulfonamide], the IC50 is below 100 nM.

The values are drawn from patent publication US11919901B2 (Syndax Pharmaceuticals, Inc., priority 2021, dated 2024).
